# The supplement of paper PMC10307832
# Compound: O=C(O)C(Cc1ccccc1[N+](=O)[O-])=NNc1nc(-c2ccc(Cl)c(Cl)c2)cs1 (mixture of isomers) [4EGI-1] + CC1(C)CCC(c2ccc(Cl)cc2)=C(CN2CCN(c3ccc(C(=O)NS(=O)(=O)c4ccc(N[C@H](CCN5CCOCC5)CSc5ccccc5)c(S(=O)(=O)C(F)(F)F)c4)cc3)CC2)C1 [Navitoclax] (partner 0.5 µM)
# Experiment: relative viability (nuclei count vs DMSO), 5 days (fraction); higher = more cells survive
# Conditions: first compound 0.5 µM
# How it was run: (§1)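 Dosing by pin tool came one day after lung cancer cell lines were seeded in 1536-well plates, using either one drug or a fixed anchor-drug dose plus five library-drug doses (not always all listed) in √10 steps. After 5 days, nuclei were counted on 4× images. Relative viability is treated-well nuclei count divided by vehicle-well nuclei count, and values are medians of duplicate plates.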
row,Cell Line,relative viability
1,HARA,1.15
2,HCC-15,0.797
3,HCC-44,0.957
4,HCC-78,0.96
5,HCC-366,1.18
6,HCC-827,1.04
7,HOP-62,1.11
8,IA-LM,0.889
9,LC-2-ad,0.536
10,LCLC-97TM1,0.57
11,LK-2,1.18
12,LOU-NH91,0.91
13,NCI-H727,0.434
14,NCI-H1299,1.1
15,NCI-H1703,1.54

# Same assay, conditions: first compound 1.581 µM
row,Cell Line,relative viability
1,201T,1.21
2,A549,1.2
3,A-427,0.823
4,BEN,0.0661
5,COR-L23,0.802
6,COR-L 105,0.668
7,Calu-6,0.759
8,EBC-1,0.402
9,EKVX,0.77
10,EMC-BAC-2,1.2
11,EPLC-272H,0.938
12,H3255,0.477
13,HARA,1.1
14,HCC-15,0.781
15,HCC-44,0.596
16,HCC-78,0.492
17,HCC-366,0.954
18,HCC-827,0.936
19,IA-LM,0.751
20,LC-2-ad,0.486
21,NCI-H727,0.519
22,NCI-H1299,1.04
23,NCI-H1703,1.06

# Same assay, conditions: first compound 5 µM
row,Cell Line,relative viability
1,201T,1.2
2,A549,1.24
3,A-427,0.815
4,BEN,0.0652
5,CAL-12T,1.17
6,COR-L23,1.1
7,COR-L 105,1.02
8,Calu-6,1.01
9,ChaGo-K-1,1.1
10,EBC-1,0.624
11,EKVX,0.911
12,EMC-BAC-2,1.05
13,EPLC-272H,1.35
14,H3255,0.557
15,HARA,1.12
16,HCC-15,0.744
17,HCC-44,0.949
18,HCC-78,0.753
19,HCC-366,1.14
20,HCC-827,0.938
21,HOP-62,1.02
22,IA-LM,0.444
23,LC-2-ad,0.398
24,LCLC-97TM1,0.408
25,LK-2,1.16
26,LOU-NH91,0.741
27,NCI-H727,0.427
28,NCI-H1299,1.04
29,NCI-H1703,1.6

# Same assay, conditions: first compound 15.81 µM
row,Cell Line,relative viability
1,201T,1.19
2,A549,1.17
3,A-427,0.687
4,BEN,0.0675
5,CAL-12T,1.23
6,COR-L23,0.691
7,COR-L 105,0.597
8,Calu-6,0.847
9,ChaGo-K-1,0.773
10,EBC-1,0.308
11,EKVX,0.803
12,EMC-BAC-2,1.08
13,EPLC-272H,0.951
14,H3255,0.137
15,HARA,1.15
16,HCC-15,0.685
17,HCC-44,0.958
18,HCC-78,0.829
19,HCC-366,1.15
20,HOP-62,0.995
21,IA-LM,0.112
22,LC-2-ad,0.25
23,LCLC-97TM1,0.374
24,LK-2,1.14
25,LOU-NH91,0.367
26,NCI-H727,0.257
27,NCI-H1299,0.986
28,NCI-H1703,1.19

# Same assay, conditions: first compound 50 µM
row,Cell Line,relative viability
1,201T,1.19
2,A549,0.217
3,A-427,0.928
4,BEN,0.0686
5,CAL-12T,0.861
6,COR-L23,0.147
7,COR-L 105,0.43
8,Calu-6,0.213
9,ChaGo-K-1,0.247
10,EBC-1,0.142
11,EKVX,0.603
12,EMC-BAC-2,1.09
13,EPLC-272H,0.969
14,H3255,0.368
15,HARA,0.672
16,HCC-15,0.494
17,HCC-44,0.35
18,HCC-78,0.802
19,HCC-366,1.01
20,HCC-827,0.789
21,HOP-62,1.06
22,IA-LM,0.0676
23,LC-2-ad,0.0791
24,LCLC-97TM1,0.267
25,LK-2,0.877
26,LOU-NH91,0.526
27,NCI-H727,0.204
28,NCI-H1299,1.08
29,NCI-H1703,0.427

# Compound: O=C(O)C(Cc1ccccc1[N+](=O)[O-])=NNc1nc(-c2ccc(Cl)c(Cl)c2)cs1 (mixture of isomers) [4EGI-1] + COc1cc2c(Oc3ccc(NC(=O)C4(C(=O)Nc5ccc(F)cc5)CC4)cc3F)ccnc2cc1OCCCN1CCOCC1 [Foretinib] (partner 0.25 µM)
# Experiment: as above
# Conditions: first compound 0.5 µM
# How it was run: as §1
row,Cell Line,relative viability
1,201T,1.2
2,A549,1.01
3,A-427,1.16
4,ABC-1,1.21
5,BEN,0.694
6,CAL-12T,1.11
7,COR-L23,1.08
8,COR-L 105,0.983
9,Calu-6,0.933
10,ChaGo-K-1,0.942
11,EBC-1,0.0952
12,EKVX,1.08
13,EMC-BAC-2,1.2
14,EPLC-272H,0.721
15,H3255,0.982
16,HARA,0.979
17,HCC-15,1.07
18,HCC-78,0.636
19,HCC-366,0.972
20,HCC-827,1.07
21,HOP-62,1.17
22,IA-LM,1.25
23,LC-2-ad,0.997
24,LCLC-97TM1,0.926
25,LCLC-103H,0.791
26,LK-2,1.23
